Laboratory results as given in article PMC12774438, “CBL ubiquitin ligase targets translation as a degrader E3” (Chemical Science, 2025).
Where a SMILES comes first, the peptide text is derived from it.

Columns and labels:
His-eIF4E [1] = target: T1, His-eIF4E (Homo sapiens, UniProt P06730); experiment: SPR binary binding of peptides to immobilised His-eIF4E; details: 25°C, ligand His-eIF4E amine-coupled to CM5 chip, steady-state affinity, analyte 0.005859-0.75 µM, n = 3, mean ± SD
T1 construct: made in house; host or cells: E. coli BL21(DE3) Gold
T1 sequence (P06730 whole entry): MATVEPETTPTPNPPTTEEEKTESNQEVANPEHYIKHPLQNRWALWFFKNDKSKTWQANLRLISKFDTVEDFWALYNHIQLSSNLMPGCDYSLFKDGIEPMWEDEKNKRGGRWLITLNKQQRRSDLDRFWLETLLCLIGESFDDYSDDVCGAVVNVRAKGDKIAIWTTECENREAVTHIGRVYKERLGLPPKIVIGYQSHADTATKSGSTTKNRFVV
Procedure: Supplementary Figure 4. Related to Table 2
A. Sensorgrams (left) and binding curves (right) showing a three-fold dilution series […]
over immobilised eIF4E. […]
(1 picture or pasted object on this page, not shown here) […]
Data were analysed by […] affinity analysis using Cytiva Biacore TM Insight Evaluation Software. Sensorgrams for figures were made using GraphPad Prism 9.5.1.
Studying the interactions between eIF4E and eIFTerminator1-4
His-eIF4E protein was immobilised on Cytiva’s sensor chip CM5 using amine-coupling. The chip was docked and primed in running buffer (50 mM HEPES pH 7.5, 100 mM NaCl, 1 mM TCEP, 0.05% Tween20). Cytiva’s amine-coupling kit was used to capture the ligand. Briefly, 0.4 M EDC and 0.1 M NHS from the kit were mixed 50:50 and injected to activate the chip surface for 300 s at 10 μL/min. His-eIF4E was prepared for amine coupling as described previously (15). After achieving a capture level of approximately 120 RU, the remaining binding sites were blocked with ethanolamine hydrochloride-NaOH (pH 8.5) from the kit for 420 s at a flow rate of 10 μL/min. Reference surfaces were prepared in duplicates […]
Multi-cycle experiments were performed to gain steady-state binding affinity of eIFTerminator1-4 to His-eIF4E. At a flow rate of 30 μL/min, 20 startups with a 30 s contact time and a 30 s dissociation time were done prior to sample injection. An 8-point, 1 in 2 dilution series of eIFTerminator1-4 or eIF4G1-D5S peptide was injected (0.005859 – 0.75 μM) with a 100 s contact time and a 250 s dissociation time at a flow rate of 30 μL/min. The peptides were dissolved in running buffer and filtered using Coster Spin-X 0.22 μM centrifuge tube filters as described above. […]

His-eIF4E [2] = target: T2, His-eIF4E (UniProt P06730 1-217); experiment: SPR; His-eIF4E immobilised; dilution series of eIFTerminator with a fixed, saturating concentration of CBL (1 µM) as analyte; steady-state affinities, ternary complex; details: both partners purified
T2 construct: eukaryotic translation initiation factor 4E (eIF4E); Immobilised on the SPR chip; also called eukaryotic translation initiation factor 4E; source: recombinant
T2 sequence (P06730 whole entry): as above

Molecule | Kd (His-eIF4E [1]) | Kd (His-eIF4E [2])
CC(C)C[C@H](NC(=O)[C@H](CC(C)C)NC(=O)[C@H](Cc1ccccc1)NC(=O)[C@H](CCC(=O)O)NC(=O)[C@H](CCCNC(=N)N)NC(=O)[C@H](CO)NC(=O)[C@H](Cc1ccc(O)cc1)NC(=O)[C@H](CCCNC(=N)N)NC(=O)[C@H](CCCCN)NC(=O)[C@@H](N)CCCCN)C(=O)NCC(=O)N[C@@H](Cc1ccccc1)C(N)=O [eIF4G1-D5S] (H-KKRYSREFLLGF-NH2) | 0.0389 ± 0.0065 µM | 
CC[C@H](C)[C@H](NC(=O)[C@H](Cc1c[nH]c2ccccc12)NC(=O)[C@H](CO)NC(=O)[C@H](CC(=O)O)NC(=O)[C@H](CCSC)NC(=O)[C@H](CCC(=O)O)NC(=O)[C@H](CCC(=O)O)NC(=O)[C@@H](NC(=O)[C@@H](NC(=O)[C@@H](N)CCSC)[C@@H](C)O)C(C)C)C(=O)N[C@@H](CCCCN)C(=O)N[C@@H](CO)C(=O)N[C@@H](Cc1c[nH]c2ccccc12)C(=O)N[C@@H](CC(=O)O)C(=O)N[C@@H](CCC(N)=O)C(=O)N[C@@H](CCCNC(=N)N)C(=O)NCC(=O)NCC(=O)N[C@@H](CO)C(=O)NCC(=O)N[C@@H](CCCCN)C(=O)N[C@@H](CCCCN)C(=O)N[C@@H](CCCNC(=N)N)C(=O)N[C@@H](Cc1ccc(O)cc1)C(=O)N[C@@H](CO)C(=O)N[C@@H](CCCNC(=N)N)C(=O)N[C@@H](CCC(=O)O)C(=O)N[C@@H](Cc1ccccc1)C(=O)N[C@@H](CC(C)C)C(=O)N[C@@H](CC(C)C)C(=O)NCC(=O)N[C@@H](Cc1ccccc1)C(N)=O [eIFTerminator2] (H-MTVEEMDSWIKSWDQRGGSGKKRYSREFLLGF-NH2) | 0.0675 ± 0.0074 µM | 
CC[C@H](C)[C@H](NC(=O)[C@H](Cc1c[nH]c2ccccc12)NC(=O)[C@H](CO)NC(=O)[C@H](CC(=O)O)NC(=O)[C@H](CCSC)NC(=O)[C@H](CCC(=O)O)NC(=O)[C@H](CCC(=O)O)NC(=O)[C@@H](NC(=O)[C@@H](NC(=O)[C@H](CCSC)NC(=O)CNC(=O)[C@H](CO)NC(=O)CNC(=O)CNC(=O)[C@H](Cc1ccccc1)NC(=O)CNC(=O)[C@H](CC(C)C)NC(=O)[C@H](CC(C)C)NC(=O)[C@H](Cc1ccccc1)NC(=O)[C@H](CCC(=O)O)NC(=O)[C@H](CCCNC(=N)N)NC(=O)[C@H](CO)NC(=O)[C@H](Cc1ccc(O)cc1)NC(=O)[C@H](CCCNC(=N)N)NC(=O)[C@H](CCCCN)NC(=O)[C@@H](N)CCCCN)[C@@H](C)O)C(C)C)C(=O)N[C@@H](CCCCN)C(=O)N[C@@H](CO)C(=O)N[C@@H](Cc1c[nH]c2ccccc12)C(=O)N[C@@H](CC(=O)O)C(=O)N[C@@H](CCC(N)=O)C(=O)N[C@@H](CCCNC(=N)N)C(N)=O [eIFTerminator1] (H-KKRYSREFLLGFGGSGMTVEEMDSWIKSWDQR-NH2) | 0.054 ± 0.009 µM | 
eIFTerminator1-CBL binary complex (complex) chain 1: KKRYSREFLLGFGGSGMTVEEMDSWIKSWDQM chain 2: PPGTVDKKMVEKCWKLMDKVVRLCQNPKLALKNSPPYILDLLPDTYQHLRTILSRYEGKMETLGENEYFRVFMENLMKKTKQTISLFKEGKERMYEENSQPRRNLTKLSLIFSHMLAELKGIFPSGLFQGDTFRITKADAAEFWRKAFGEKTIVPWKSFRQALHEVHPISSGLEAMALKSTIDLTCNDYISVFEFDIFTRLFQPWSSLLRNWNSLAVTHPGYMAFLTYDEVKARLQKFIHKPGSYIFRLSCTRLGQWAIGYVTADGNILQTIPHNKPLFQALIDGFREGFYLFPDGRNQNPDLTGLCEPTPQDHIKVTQEQYELYCEMGSTFQLCKICAENDKDVKIEPCGHLMCTSCLTSWQESEGQGCPFCRCEIKGTEPIVVDPFD |  | 0.0778 µM
eIFTerminator3-CBL binary complex (complex) chain 1: MTVEEMDSWIKSWDQMGGSGKKRYSREFLLGF chain 2: PPGTVDKKMVEKCWKLMDKVVRLCQNPKLALKNSPPYILDLLPDTYQHLRTILSRYEGKMETLGENEYFRVFMENLMKKTKQTISLFKEGKERMYEENSQPRRNLTKLSLIFSHMLAELKGIFPSGLFQGDTFRITKADAAEFWRKAFGEKTIVPWKSFRQALHEVHPISSGLEAMALKSTIDLTCNDYISVFEFDIFTRLFQPWSSLLRNWNSLAVTHPGYMAFLTYDEVKARLQKFIHKPGSYIFRLSCTRLGQWAIGYVTADGNILQTIPHNKPLFQALIDGFREGFYLFPDGRNQNPDLTGLCEPTPQDHIKVTQEQYELYCEMGSTFQLCKICAENDKDVKIEPCGHLMCTSCLTSWQESEGQGCPFCRCEIKGTEPIVVDPFD |  | 0.0818 µM
eIFTerminator4-CBL binary complex (complex) chain 1: MTVEEMDSWIKSWDQMGGSGGSGGSGKKRYSREFLLGF chain 2: PPGTVDKKMVEKCWKLMDKVVRLCQNPKLALKNSPPYILDLLPDTYQHLRTILSRYEGKMETLGENEYFRVFMENLMKKTKQTISLFKEGKERMYEENSQPRRNLTKLSLIFSHMLAELKGIFPSGLFQGDTFRITKADAAEFWRKAFGEKTIVPWKSFRQALHEVHPISSGLEAMALKSTIDLTCNDYISVFEFDIFTRLFQPWSSLLRNWNSLAVTHPGYMAFLTYDEVKARLQKFIHKPGSYIFRLSCTRLGQWAIGYVTADGNILQTIPHNKPLFQALIDGFREGFYLFPDGRNQNPDLTGLCEPTPQDHIKVTQEQYELYCEMGSTFQLCKICAENDKDVKIEPCGHLMCTSCLTSWQESEGQGCPFCRCEIKGTEPIVVDPFD |  | 0.0438 µM

More lines, now with the values ahead:

Kd (His-eIF4E [1]) | Kd (His-eIF4E [2]) | Molecule
0.0395 ± 0.0034 µM |  | CC[C@H](C)[C@H](NC(=O)[C@H](Cc1c[nH]c2ccccc12)NC(=O)[C@H](CO)NC(=O)[C@H](CC(=O)O)NC(=O)[C@H](CCSC)NC(=O)[C@H](CCC(=O)O)NC(=O)[C@H](CCC(=O)O)NC(=O)[C@@H](NC(=O)[C@@H](NC(=O)[C@H](CCSC)NC(=O)CNC(=O)[C@H](CO)NC(=O)CNC(=O)CNC(=O)[C@H](CO)NC(=O)CNC(=O)CNC(=O)[C@H](CO)NC(=O)CNC(=O)CNC(=O)[C@H](Cc1ccccc1)NC(=O)CNC(=O)[C@H](CC(C)C)NC(=O)[C@H](CC(C)C)NC(=O)[C@H](Cc1ccccc1)NC(=O)[C@H](CCC(=O)O)NC(=O)[C@H](CCCNC(=N)N)NC(=O)[C@H](CO)NC(=O)[C@H](Cc1ccc(O)cc1)NC(=O)[C@H](CCCNC(=N)N)NC(=O)[C@H](CCCCN)NC(=O)[C@@H](N)CCCCN)[C@@H](C)O)C(C)C)C(=O)N[C@@H](CCCCN)C(=O)N[C@@H](CO)C(=O)N[C@@H](Cc1c[nH]c2ccccc12)C(=O)N[C@@H](CC(=O)O)C(=O)N[C@@H](CCC(N)=O)C(=O)N[C@@H](CCCNC(=N)N)C(N)=O [eIFTerminator3] (H-KKRYSREFLLGFGGSGGSGGSGMTVEEMDSWIKSWDQR-NH2)
0.0606 ± 0.0085 µM |  | CC[C@H](C)[C@H](NC(=O)[C@H](Cc1c[nH]c2ccccc12)NC(=O)[C@H](CO)NC(=O)[C@H](CC(=O)O)NC(=O)[C@H](CCSC)NC(=O)[C@H](CCC(=O)O)NC(=O)[C@H](CCC(=O)O)NC(=O)[C@@H](NC(=O)[C@@H](NC(=O)[C@@H](N)CCSC)[C@@H](C)O)C(C)C)C(=O)N[C@@H](CCCCN)C(=O)N[C@@H](CO)C(=O)N[C@@H](Cc1c[nH]c2ccccc12)C(=O)N[C@@H](CC(=O)O)C(=O)N[C@@H](CCC(N)=O)C(=O)N[C@@H](CCCNC(=N)N)C(=O)NCC(=O)NCC(=O)N[C@@H](CO)C(=O)NCC(=O)NCC(=O)N[C@@H](CO)C(=O)NCC(=O)NCC(=O)N[C@@H](CO)C(=O)NCC(=O)N[C@@H](CCCCN)C(=O)N[C@@H](CCCCN)C(=O)N[C@@H](CCCNC(=N)N)C(=O)N[C@@H](Cc1ccc(O)cc1)C(=O)N[C@@H](CO)C(=O)N[C@@H](CCCNC(=N)N)C(=O)N[C@@H](CCC(=O)O)C(=O)N[C@@H](Cc1ccccc1)C(=O)N[C@@H](CC(C)C)C(=O)N[C@@H](CC(C)C)C(=O)NCC(=O)N[C@@H](Cc1ccccc1)C(N)=O [eIFTerminator4] (H-MTVEEMDSWIKSWDQRGGSGGSGGSGKKRYSREFLLGF-NH2)
 | 0.0607 µM | eIFTerminator2-CBL binary complex (complex) chain 1: KKRYSREFLLGFGGSGGSGGSGMTVEEMDSWIKSWDQM chain 2: PPGTVDKKMVEKCWKLMDKVVRLCQNPKLALKNSPPYILDLLPDTYQHLRTILSRYEGKMETLGENEYFRVFMENLMKKTKQTISLFKEGKERMYEENSQPRRNLTKLSLIFSHMLAELKGIFPSGLFQGDTFRITKADAAEFWRKAFGEKTIVPWKSFRQALHEVHPISSGLEAMALKSTIDLTCNDYISVFEFDIFTRLFQPWSSLLRNWNSLAVTHPGYMAFLTYDEVKARLQKFIHKPGSYIFRLSCTRLGQWAIGYVTADGNILQTIPHNKPLFQALIDGFREGFYLFPDGRNQNPDLTGLCEPTPQDHIKVTQEQYELYCEMGSTFQLCKICAENDKDVKIEPCGHLMCTSCLTSWQESEGQGCPFCRCEIKGTEPIVVDPFD
